From ChEMBL document CHEMBL1131820, “Synthesis of pyrazolidinone antibacterial agents” (1999) come the findings set out here.

Test [1] deals with Staphylococcus aureus. Briefly: microbe, parasite or virus in culture. Type of test: functional.
The test system of a further test is Micrococcus luteus. As to the kind of experiment: microbe, parasite or virus in culture. It counts as functional.
Test [2] has as its system Staphylococcus aureus. As to the kind of experiment: Compound was tested by in vitro qualitative microbiological testings with cephalothin against Staphylococcus aureus; No anti bacterial activity. It counts as functional, organism-based.
Test [3] has as its system Escherichia coli. As to the kind of experiment: Compound was tested by in vitro qualitative microbiological testings with cephalothin against Escherichia coli; No anti bacterial activity. It counts as functional, organism-based.
Test [4] relates to Escherichia coli. Briefly: In vitro antibacterial activity against Escherichia coli; Active. It counts as functional, organism-based.
Test [5] concerns Staphylococcus aureus. As to the kind of experiment: Compound was tested by in vitro qualitative microbiological testings with cephalothin against Staphylococcus aureus; positive synergy test. It counts as functional, organism-based.
Test [6] relates to Escherichia coli. Briefly: Compound was tested by in vitro qualitative microbiological testings with cephalothin against Escherichia coli; positive synergy test. Type of test: functional, organism-based.

≈ marks a conversion by molar mass, not a printed value. Calls of active or inactive are those of the source. No cut-off for these calls is given here.

Description for Micrococcus luteus: Antibacterial activity against Micrococcus luteus; 128 to 512 ug/mL

For the compound `CN1CC(NC(=O)Cc2ccccc2)C(=O)N1C(=O)c1cccc(O)c1` (centres undefined), the MIC against Staphylococcus aureus [1] and with Micrococcus luteus was 128 µg/mL (≈ 362 µM) throughout.

`CN1CC(NC(=O)Cc2ccccc2)C(=O)N1` (centres undefined): the outcome in the test with Staphylococcus aureus [2] and in the test on Escherichia coli [3] was inactive.

For `CN1CC(NC(=O)Cc2ccccc2)C(=O)N1C(=O)c1ccccc1` (centres undefined), the MIC against Staphylococcus aureus [1] and with Micrococcus luteus was 128 µg/mL (≈ 379 µM) throughout. Moreover, the result in the test with Escherichia coli [4] was Active. In the test on Staphylococcus aureus [5], the Activity entry was “positive synergy test”.

`CN1CC(NC(=O)Cc2ccccc2)C(=O)N1C(=O)Cc1ccccc1` (centres undefined): the MIC with Staphylococcus aureus [1] and in the test with Micrococcus luteus was 128 µg/mL (≈ 364 µM) each time. Also, the outcome with Escherichia coli [4] was Active. For the same compound, the Activity result in the test with Staphylococcus aureus [5] is “positive synergy test”.

Take `CC(=O)N1C(=O)C(NC(=O)Cc2ccccc2)CN1C` (centres undefined): the Activity entry in the test with Escherichia coli [6] and with Staphylococcus aureus [5] was “positive synergy test” in each case.
